Data published in US9758529B2, “Fused dihydro-4H-pyrazolo[5,1-C][1,4]oxazinyl compounds and analogs for treating CNS disorders” (Sunovion Pharmaceuticals Inc., priority 2015, dated 2017).

The compounds below were run on mice (assay: Neuropharmacological Assay (SmartCube)). Details: i.p. 15 min before behavioral test; 3 doses, most efficacious dose(s) presented.
Assay type: in vivo

Structure (SMILES) | AD: ADHD (probability of class match) | AG: analgesic (probability of class match) | AX: anxiolytic (probability of class match) | CE: cognitive enhancer (probability of class match) | DP: anti-depressant (probability of class match) | HA: hallucinogen (probability of class match) | MS: mood stabilizer (probability of class match) | PS: anti-psychotic (probability of class match) | SD: sedative hypnotic (probability of class match) | UN: uncharacterized CNS activity (probability of class match)
CC(C)N(C)CC1OCCn2nc3ccccc3c21.Cl (centres unmarked) [Compound 27, N-((3,4-dihydro-1H-[1,4]oxazino[4,3-b]indazol-1-yl)methyl)-N-methylpropan-2-aminium chloride] | + (LOQ≦ + <5%) | ++ (5%≦ ++ <25%) | + (LOQ≦ + <5%) | + (LOQ≦ + <5%) | ++++ (50%≦ ++++) | + (LOQ≦ + <5%) | + (LOQ≦ + <5%) | + (LOQ≦ + <5%) | + (LOQ≦ + <5%) | + (LOQ≦ + <5%)
CCN(C)CC1OCCn2nc3ccccc3c21.Cl (centres unmarked) [Compound 28, N-((3,4-dihydro-1H-[1,4]oxazino[4,3-b]indazol-1-yl)methyl)-N-methylethanaminium chloride] | + (LOQ≦ + <5%) | + (LOQ≦ + <5%) | ++ (5%≦ ++ <25%) | ++ (5%≦ ++ <25%) | ++++ (50%≦ ++++) | ++ (5%≦ ++ <25%) | + (LOQ≦ + <5%) | + (LOQ≦ + <5%) | + (LOQ≦ + <5%) | ++ (5%≦ ++ <25%)
CN(CC1OCCn2nc3ccccc3c21)C1CCC1.Cl (centres unmarked) [Compound 29, N-((3,4-dihydro-1H-[1,4]oxazino[4,3-b]indazol-1-yl)methyl)-N-methylcyclobutanaminium chloride] | + (LOQ≦ + <5%) | + (LOQ≦ + <5%) | ++ (5%≦ ++ <25%) | ++ (5%≦ ++ <25%) | +++ (25%≦ +++ <50%) | ++ (5%≦ ++ <25%) | + (LOQ≦ + <5%) | + (LOQ≦ + <5%) | + (LOQ≦ + <5%) | + (LOQ≦ + <5%)
c1ccc2c3n(nc2c1)CCOC3C1CCNCC1 (centres unmarked) [Compound 35, 4-(3,4-dihydro-1H-[1,4]oxazino[4,3-b]indazol-1-yl)piperidin-1-ium chloride] | + (LOQ≦ + <5%) | + (LOQ≦ + <5%) | + (LOQ≦ + <5%) | + (LOQ≦ + <5%) | + (LOQ≦ + <5%) | + (LOQ≦ + <5%) | + (LOQ≦ + <5%) | + (LOQ≦ + <5%) | + (LOQ≦ + <5%) | + (LOQ≦ + <5%)
c1ccc2c3n(nc2c1)CCOC31CCNCC1 [Compound 36, 3′,4′-dihydrospiro[piperidine-4,1′-[1,4]oxazino[4,3-b]indazol]-1-ium chloride] | + (LOQ≦ + <5%) | ++ (5%≦ ++ <25%) | ++ (5%≦ ++ <25%) | ++ (5%≦ ++ <25%) | +++ (25%≦ +++ <50%) | + (LOQ≦ + <5%) | + (LOQ≦ + <5%) | ++ (5%≦ ++ <25%) | ++ (5%≦ ++ <25%) | ++ (5%≦ ++ <25%)
Cl.c1ccc2c3n(nc2c1)CCOC31CN2CCC1C2 (centres unmarked) [Compound 37, 3′,4′-dihydro-4-azaspiro[bicyclo[2.2.1]heptane-2,1′-[1,4]oxazino[4,3-b]indazol]-4-ium chloride] | + (LOQ≦ + <5%) | ++ (5%≦ ++ <25%) | ++ (5%≦ ++ <25%) | ++ (5%≦ ++ <25%) | ++ (5%≦ ++ <25%) | + (LOQ≦ + <5%) | + (LOQ≦ + <5%) | ++ (5%≦ ++ <25%) | ++ (5%≦ ++ <25%) | +++ (25%≦ +++ <50%)
Cl.c1ccc2c3n(nc2c1)CCOC3[C@H]1CCCNC1 (stereo partly drawn) [Compound 38, (3S)-3-(3,4-dihydro-1H-[1,4]oxazino[4,3-b]indazol-1-yl)piperidin-1-ium] | + (LOQ≦ + <5%) | ++ (5%≦ ++ <25%) | ++ (5%≦ ++ <25%) | + (LOQ≦ + <5%) | + (LOQ≦ + <5%) | + (LOQ≦ + <5%) | ++ (5%≦ ++ <25%) | ++ (5%≦ ++ <25%) | + (LOQ≦ + <5%) | + (LOQ≦ + <5%)
CC1(CN)OCCn2nc3ccccc3c21.Cl (centres unmarked) [Compound 39, (1-methyl-3,4-dihydro-1H-[1,4]oxazino[4,3-b]indazol-1-yl)methanaminium chloride] | + (LOQ≦ + <5%) | + (LOQ≦ + <5%) | ++ (5%≦ ++ <25%) | + (LOQ≦ + <5%) | ++ (5%≦ ++ <25%) | + (LOQ≦ + <5%) | + (LOQ≦ + <5%) | + (LOQ≦ + <5%) | + (LOQ≦ + <5%) | + (LOQ≦ + <5%)
c1ccc2c3n(nc2c1)CCOC31CNC1 [Compound 40, 3′,4′-dihydrospiro[azetidine-3,1′-[1,4]oxazino[4,3-b]indazol]-1-ium chloride] | + (LOQ≦ + <5%) | ++ (5%≦ ++ <25%) | +++ (25%≦ +++ <50%) | ++ (5%≦ ++ <25%) | ++ (5%≦ ++ <25%) | + (LOQ≦ + <5%) | + (LOQ≦ + <5%) | ++ (5%≦ ++ <25%) | ++ (5%≦ ++ <25%) | + (LOQ≦ + <5%)
Cl.N[C@H](CC1CCC1)C1OCCn2nc3ccccc3c21 (stereo partly drawn) [Compound 41, (1R)-2-cyclobutyl-1-(3,4-dihydro-1H-[1,4]oxazino[4,3-b]indazol-1-yl)ethan-1-aminium] | + (LOQ≦ + <5%) | + (LOQ≦ + <5%) | + (LOQ≦ + <5%) | + (LOQ≦ + <5%) | + (LOQ≦ + <5%) | + (LOQ≦ + <5%) | + (LOQ≦ + <5%) | + (LOQ≦ + <5%) | + (LOQ≦ + <5%) | + (LOQ≦ + <5%)

Same assay, conditions: i.p. 15 min before behavioral test; 3 doses, most efficacious dose(s) presented

Structure (SMILES) | XG: anxiogenic (probability of class match)
CC(C)N(C)CC1OCCn2nc3ccccc3c21.Cl (centres unmarked) [Compound 27, N-((3,4-dihydro-1H-[1,4]oxazino[4,3-b]indazol-1-yl)methyl)-N-methylpropan-2-aminium chloride] | + (LOQ≦ + <5%)
CCN(C)CC1OCCn2nc3ccccc3c21.Cl (centres unmarked) [Compound 28, N-((3,4-dihydro-1H-[1,4]oxazino[4,3-b]indazol-1-yl)methyl)-N-methylethanaminium chloride] | + (LOQ≦ + <5%)
CN(CC1OCCn2nc3ccccc3c21)C1CCC1.Cl (centres unmarked) [Compound 29, N-((3,4-dihydro-1H-[1,4]oxazino[4,3-b]indazol-1-yl)methyl)-N-methylcyclobutanaminium chloride] | + (LOQ≦ + <5%)
c1ccc2c3n(nc2c1)CCOC3C1CCNCC1 (centres unmarked) [Compound 35, 4-(3,4-dihydro-1H-[1,4]oxazino[4,3-b]indazol-1-yl)piperidin-1-ium chloride] | + (LOQ≦ + <5%)
c1ccc2c3n(nc2c1)CCOC31CCNCC1 [Compound 36, 3′,4′-dihydrospiro[piperidine-4,1′-[1,4]oxazino[4,3-b]indazol]-1-ium chloride] | + (LOQ≦ + <5%)
Cl.c1ccc2c3n(nc2c1)CCOC31CN2CCC1C2 (centres unmarked) [Compound 37, 3′,4′-dihydro-4-azaspiro[bicyclo[2.2.1]heptane-2,1′-[1,4]oxazino[4,3-b]indazol]-4-ium chloride] | + (LOQ≦ + <5%)
Cl.c1ccc2c3n(nc2c1)CCOC3[C@H]1CCCNC1 (stereo partly drawn) [Compound 38, (3S)-3-(3,4-dihydro-1H-[1,4]oxazino[4,3-b]indazol-1-yl)piperidin-1-ium] | + (LOQ≦ + <5%)
CC1(CN)OCCn2nc3ccccc3c21.Cl (centres unmarked) [Compound 39, (1-methyl-3,4-dihydro-1H-[1,4]oxazino[4,3-b]indazol-1-yl)methanaminium chloride] | + (LOQ≦ + <5%)
c1ccc2c3n(nc2c1)CCOC31CNC1 [Compound 40, 3′,4′-dihydrospiro[azetidine-3,1′-[1,4]oxazino[4,3-b]indazol]-1-ium chloride] | + (LOQ≦ + <5%)
Cl.N[C@H](CC1CCC1)C1OCCn2nc3ccccc3c21 (stereo partly drawn) [Compound 41, (1R)-2-cyclobutyl-1-(3,4-dihydro-1H-[1,4]oxazino[4,3-b]indazol-1-yl)ethan-1-aminium] | + (LOQ≦ + <5%)
